Patent US6274606A, “Methods of treating central nervous system disorders with aryl substituted olefinic amine compounds” (Targacept, Inc., priority 1998, dated 2001)

Key:
Format in all cases: cell-based
[1] = molecular target: T1, ganglionic receptors (Rattus norvegicus, UniProt P04757+P12392); experiment: cell-based; conditions: for Ganglion Effect (% nicotine): ganglionic cell preparations
T1 construct: endogenous in cells; host or cells: cell preparations derived from the adrenal gland

[2] = test system: CNS nicotinic receptors; experiment: Determination of Dopamine Release
Procedure: As such, these compounds have the ability to cause relevant neurons to release or secrete acetylcholine, dopamine, and other neurotransmitters. […] Certain compounds of the present invention can provide secretion of dopamine in an amount which can exceed that elicited by an equal molar amount of (S)-(-)-nicotine.
Determination of Dolpamine Release
Dopamine release was measured using the techniques described in U.S. Pat. No. 5,597,919 to Dull et al., the subject matter of which is already incorporated herein by reference in its entirety. […] Reported EC50 is expressed in nM and Emax represent the amount released relative to nicotine.

[3] = molecular target: T2, muscle receptors (Homo sapiens, UniProt P02708+P07510+Q07001); conditions: muscle cell preparations
T2 construct: endogenous in cells; host or cells: cell preparations derived from muscle
T2 sequence (P07510 23-517): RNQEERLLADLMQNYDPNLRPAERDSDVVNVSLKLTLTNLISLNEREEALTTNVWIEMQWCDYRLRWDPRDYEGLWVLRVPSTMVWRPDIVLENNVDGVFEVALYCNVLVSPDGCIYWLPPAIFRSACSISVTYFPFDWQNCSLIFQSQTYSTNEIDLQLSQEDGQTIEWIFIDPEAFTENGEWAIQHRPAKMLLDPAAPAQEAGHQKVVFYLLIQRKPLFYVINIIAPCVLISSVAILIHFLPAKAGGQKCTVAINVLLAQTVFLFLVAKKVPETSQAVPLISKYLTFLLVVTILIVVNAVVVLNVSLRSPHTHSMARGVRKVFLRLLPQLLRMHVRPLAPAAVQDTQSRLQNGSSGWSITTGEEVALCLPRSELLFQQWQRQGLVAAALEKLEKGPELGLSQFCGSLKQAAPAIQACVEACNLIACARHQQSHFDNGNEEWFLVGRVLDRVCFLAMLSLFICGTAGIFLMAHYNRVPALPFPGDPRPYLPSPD
T2 sequence (P11230 24-501, further chain): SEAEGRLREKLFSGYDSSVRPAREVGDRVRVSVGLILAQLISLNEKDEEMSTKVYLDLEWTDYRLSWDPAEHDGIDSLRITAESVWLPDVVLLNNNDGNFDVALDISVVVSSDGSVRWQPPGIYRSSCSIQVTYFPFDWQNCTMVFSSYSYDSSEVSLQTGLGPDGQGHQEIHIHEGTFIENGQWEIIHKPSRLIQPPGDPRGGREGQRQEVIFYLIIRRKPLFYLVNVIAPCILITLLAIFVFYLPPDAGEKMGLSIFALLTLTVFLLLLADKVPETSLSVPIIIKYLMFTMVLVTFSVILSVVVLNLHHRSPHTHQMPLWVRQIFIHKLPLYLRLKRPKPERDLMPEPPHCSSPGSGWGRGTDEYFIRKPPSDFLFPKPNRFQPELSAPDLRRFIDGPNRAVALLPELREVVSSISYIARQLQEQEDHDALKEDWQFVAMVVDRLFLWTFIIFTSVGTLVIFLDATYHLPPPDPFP
T2 sequence (Q07001 22-517): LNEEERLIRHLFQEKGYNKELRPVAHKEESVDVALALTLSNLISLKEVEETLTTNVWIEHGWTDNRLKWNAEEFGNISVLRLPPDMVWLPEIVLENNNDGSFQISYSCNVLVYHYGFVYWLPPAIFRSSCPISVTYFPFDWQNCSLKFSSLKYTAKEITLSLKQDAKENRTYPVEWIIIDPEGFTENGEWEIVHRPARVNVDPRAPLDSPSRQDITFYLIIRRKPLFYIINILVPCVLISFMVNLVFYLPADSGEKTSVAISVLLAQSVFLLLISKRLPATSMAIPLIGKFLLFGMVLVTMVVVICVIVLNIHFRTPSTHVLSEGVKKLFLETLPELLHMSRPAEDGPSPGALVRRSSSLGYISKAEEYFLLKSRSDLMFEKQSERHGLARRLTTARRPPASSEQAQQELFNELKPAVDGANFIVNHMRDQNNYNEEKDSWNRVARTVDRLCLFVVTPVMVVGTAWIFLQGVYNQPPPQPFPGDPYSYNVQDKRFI
T2 sequence (P02708 21-457): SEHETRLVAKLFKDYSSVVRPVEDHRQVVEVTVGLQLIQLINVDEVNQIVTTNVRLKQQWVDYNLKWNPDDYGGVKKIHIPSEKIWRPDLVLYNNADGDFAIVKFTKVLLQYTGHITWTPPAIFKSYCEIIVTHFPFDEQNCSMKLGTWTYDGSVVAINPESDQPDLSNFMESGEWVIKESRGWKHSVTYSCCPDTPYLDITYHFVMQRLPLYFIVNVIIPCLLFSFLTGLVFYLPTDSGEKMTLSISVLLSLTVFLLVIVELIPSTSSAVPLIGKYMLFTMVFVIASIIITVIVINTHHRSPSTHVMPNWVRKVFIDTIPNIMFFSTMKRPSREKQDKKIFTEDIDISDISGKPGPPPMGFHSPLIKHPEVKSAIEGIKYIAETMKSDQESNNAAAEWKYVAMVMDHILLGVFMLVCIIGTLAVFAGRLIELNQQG

T1 sequence (P04757 26-499): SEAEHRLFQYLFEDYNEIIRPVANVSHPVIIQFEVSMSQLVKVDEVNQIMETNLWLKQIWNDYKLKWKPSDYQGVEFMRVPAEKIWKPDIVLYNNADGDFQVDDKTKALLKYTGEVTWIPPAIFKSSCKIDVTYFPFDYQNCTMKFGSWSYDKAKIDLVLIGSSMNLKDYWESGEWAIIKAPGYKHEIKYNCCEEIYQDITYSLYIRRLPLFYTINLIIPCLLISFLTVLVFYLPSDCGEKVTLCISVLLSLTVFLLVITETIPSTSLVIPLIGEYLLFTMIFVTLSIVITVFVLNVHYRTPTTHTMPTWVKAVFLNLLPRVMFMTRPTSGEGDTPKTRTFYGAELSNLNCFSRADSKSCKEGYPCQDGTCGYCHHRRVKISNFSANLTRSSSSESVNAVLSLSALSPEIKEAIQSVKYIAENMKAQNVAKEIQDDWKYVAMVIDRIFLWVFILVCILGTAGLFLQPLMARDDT
T1 sequence (P12392 21-495): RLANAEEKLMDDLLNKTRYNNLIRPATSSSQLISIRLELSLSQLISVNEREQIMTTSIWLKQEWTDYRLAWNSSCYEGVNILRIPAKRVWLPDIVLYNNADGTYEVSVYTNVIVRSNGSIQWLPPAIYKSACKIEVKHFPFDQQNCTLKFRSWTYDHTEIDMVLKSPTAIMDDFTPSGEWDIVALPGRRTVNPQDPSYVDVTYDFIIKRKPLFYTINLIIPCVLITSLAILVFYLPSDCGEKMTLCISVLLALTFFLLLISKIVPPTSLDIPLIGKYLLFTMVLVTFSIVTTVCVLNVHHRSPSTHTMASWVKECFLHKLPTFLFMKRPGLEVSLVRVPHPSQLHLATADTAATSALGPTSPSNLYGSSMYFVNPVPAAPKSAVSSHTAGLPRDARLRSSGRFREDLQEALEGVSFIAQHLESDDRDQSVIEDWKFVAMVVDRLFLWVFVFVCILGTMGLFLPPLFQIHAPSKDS

| Structure (SMILES) | Ganglion Effect (% nicotine) [1] | other results |
| --- | --- | --- |
| CNCC/C=C/c1cncc(OCc2ccccc2)c1 [Sample No. 1, (E)-N-Methyl-4-[3-(5-benzyloxypyridin)yl]-3-buten-1-amine] | 0 | – |
| NCC/C=C/c1cncc(Br)c1 [Sample No. 2, (E)-4-[3-(5-Bromopyridin)yl]-3-buten-1-amine Hemifumarate] | 11 | EC50 [2]: 2400 nM; Dopamine Release Emax ([2]; percentage of release obtained with a concentration of (S)-(-)-nicotine resulting in maximal effects): 107%; Muscle Effect (% nicotine) [3]: 8 |
| CNCC/C=C/c1cncc(Oc2ccccc2)c1 [Sample No. 3, (E)-N-Methyl-4-[3-(5-phenoxypyridin)yl]-3-buten-1-amine] | < 15 | – |
| CNCC/C=C/c1cncc(OC(C)C)c1 [Sample No. 4, (E)-N-Methyl-4-[3-(5-isopropoxypyridin)yl]-3-buten-1-amine] | < 15 | – |
| CNCC/C=C/c1cncc(COC)c1 [Sample No. 5, (E)-N-Methyl-4-[3-(5-methoxymethylpyridin)yl]-3-buten-1-amine] | 0 | – |
| NCC/C=C/c1cccnc1.O=C(O)/C=C/C(=O)O.O=C(O)/C=C/C(=O)O [Sample No. 6, (E)-4-(3-pyridinyl)-3-buten-1-amine difumarate] | 23 | – |
| CCOc1cncc(/C=C/CCNC)c1 [Sample No. 7, (E)-N-Methyl-4-[3-(5-ethoxypyridin)yl]-3-buten-1-amine Sesquifumarate] | – | Emax ([1]; read-out: Ganglion Effect (% nicotine)): < 15% |
| CNCC/C=C/c1cncc(-c2ccccc2)c1 [Sample No. 8, (E)-N-Methyl-4-[3-(5-phenylpyridin)yl]-3-buten-1-amine] | 0 | – |
| CNCC/C=C/c1cncc(N)c1 [Sample No. 9, (E)-N-methyl-4-[3-(5-aminopyridin)yl]-3-buten-1-amine] | 4 | – |
